Legend:
PAP f39 (PAP248-286) [1] = molecular target: T1, PAP f39 (PAP248-286) (Homo sapiens, UniProt P15309); assay: isothermal titration calorimetry; assay type: binding
T1 construct: gene ACP3; synthetic 39-residue peptide fragment 248-286 (GL Biochem), N-terminal Gly, C-terminal Tyr, HFIP-pretreated monomer; 2L3H is only the docking structure of this peptide
T1 sequence (P15309 248-286): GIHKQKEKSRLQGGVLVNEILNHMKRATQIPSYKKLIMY

PAP f39 (PAP248-286) [2] = molecular target: T1, PAP f39 (PAP248-286); assay: ThT fluorescence aggregation assay; assay type: biochemical; settings: PBS pH 7.3, 37 °C, 1200 rpm, 96 h; 0.44 mM PAP f39, 0.022 mM NQTrp; inhibition of fibril formation

Question: Which results are given for `O=C1C=C(N[C@@H](Cc2c[nH]c3ccccc23)C(=O)O)C(=O)c2ccccc21` [NQTrp]?
Answer: Kd (PAP f39 (PAP248-286) [1]): 5.94 ± 1.26 µM; % amyloid inhibition at 20:1 (PAP f39:NQTrp) (PAP f39 (PAP248-286) [2]): ~ 70%

Reference: paper PMC6320874, “Inhibitory Effect of Naphthoquinone-Tryptophan Hybrid towards Aggregation of PAP f39 Semen Amyloid” (Molecules, 2018)
